Data as given in ChEMBL document CHEMBL5241098, “Progress in the development of small molecular inhibitors of the Bruton's tyrosine kinase (BTK) as a promising cancer therapy” (Bioorg Med Chem, 2021).
pEC50, pIC50: −log10 of the molar value. One block for each molecule: values may come before it.

Columns and labels:
[1] = target: Protein cereblon/Tyrosine-protein kinase BTK (Homo sapiens, UniProt Q06187+Q96SW2, C481S); test: PROTAC activity at CRBN/BTK C481S mutant in human HBL1 cells assessed as decrease in BTK C481S level incubated for 36 hrs by Western blot analysis; format: cell-based
Sequence of Protein cereblon/Tyrosine-protein kinase BTK (Homo sapiens, UniProt Q06187+Q96SW2, C481S) (Q06187 2-659 C481S limits assumed, stated change not applied): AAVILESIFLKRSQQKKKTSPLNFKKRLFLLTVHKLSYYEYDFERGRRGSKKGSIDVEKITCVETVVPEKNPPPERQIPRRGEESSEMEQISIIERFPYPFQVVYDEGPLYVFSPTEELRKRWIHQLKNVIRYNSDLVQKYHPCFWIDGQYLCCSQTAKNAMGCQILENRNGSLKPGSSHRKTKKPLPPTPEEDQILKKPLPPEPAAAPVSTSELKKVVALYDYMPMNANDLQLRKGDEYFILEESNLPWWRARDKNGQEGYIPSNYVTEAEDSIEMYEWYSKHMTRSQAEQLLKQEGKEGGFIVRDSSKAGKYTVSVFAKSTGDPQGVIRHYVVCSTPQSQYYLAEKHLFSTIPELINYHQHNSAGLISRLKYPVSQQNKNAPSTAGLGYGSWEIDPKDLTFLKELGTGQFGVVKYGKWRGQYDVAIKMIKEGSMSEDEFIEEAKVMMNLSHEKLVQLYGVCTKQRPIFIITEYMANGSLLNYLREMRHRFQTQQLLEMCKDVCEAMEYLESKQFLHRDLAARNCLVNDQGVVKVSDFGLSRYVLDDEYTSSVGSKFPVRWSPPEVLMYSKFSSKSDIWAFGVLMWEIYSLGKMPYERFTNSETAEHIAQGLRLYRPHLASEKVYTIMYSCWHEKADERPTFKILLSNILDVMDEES
Sequence of Protein cereblon/Tyrosine-protein kinase BTK (Homo sapiens, UniProt Q06187+Q96SW2, C481S) (Q96SW2 whole entry, stated change not applied): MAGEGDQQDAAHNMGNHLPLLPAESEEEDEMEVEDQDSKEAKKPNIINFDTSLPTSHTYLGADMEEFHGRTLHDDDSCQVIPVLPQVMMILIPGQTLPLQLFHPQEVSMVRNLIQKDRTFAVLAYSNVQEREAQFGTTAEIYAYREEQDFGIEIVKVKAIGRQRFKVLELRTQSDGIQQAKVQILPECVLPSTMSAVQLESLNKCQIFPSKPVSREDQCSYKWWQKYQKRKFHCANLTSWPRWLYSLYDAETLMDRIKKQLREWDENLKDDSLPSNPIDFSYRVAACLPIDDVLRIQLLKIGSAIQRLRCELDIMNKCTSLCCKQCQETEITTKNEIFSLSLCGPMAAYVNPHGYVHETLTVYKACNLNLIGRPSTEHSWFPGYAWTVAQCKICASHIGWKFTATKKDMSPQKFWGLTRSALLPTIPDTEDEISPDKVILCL

Maver1 = test: Antiproliferative activity against human MAVER-1 cells assessed as reduction in cell viability incubated for 72 hrs by CellTiter Glo luminescence assay; settings: Maver1, 72 h
[2] = target: T1, Tyrosine-protein kinase BTK (Homo sapiens, UniProt Q06187); test: Inhibition of BTK (unknown origin) incubated for 40 mins in the presence of ATP by scintillation based radiometric protein kinase assay
T1 sequence (Q06187 whole entry): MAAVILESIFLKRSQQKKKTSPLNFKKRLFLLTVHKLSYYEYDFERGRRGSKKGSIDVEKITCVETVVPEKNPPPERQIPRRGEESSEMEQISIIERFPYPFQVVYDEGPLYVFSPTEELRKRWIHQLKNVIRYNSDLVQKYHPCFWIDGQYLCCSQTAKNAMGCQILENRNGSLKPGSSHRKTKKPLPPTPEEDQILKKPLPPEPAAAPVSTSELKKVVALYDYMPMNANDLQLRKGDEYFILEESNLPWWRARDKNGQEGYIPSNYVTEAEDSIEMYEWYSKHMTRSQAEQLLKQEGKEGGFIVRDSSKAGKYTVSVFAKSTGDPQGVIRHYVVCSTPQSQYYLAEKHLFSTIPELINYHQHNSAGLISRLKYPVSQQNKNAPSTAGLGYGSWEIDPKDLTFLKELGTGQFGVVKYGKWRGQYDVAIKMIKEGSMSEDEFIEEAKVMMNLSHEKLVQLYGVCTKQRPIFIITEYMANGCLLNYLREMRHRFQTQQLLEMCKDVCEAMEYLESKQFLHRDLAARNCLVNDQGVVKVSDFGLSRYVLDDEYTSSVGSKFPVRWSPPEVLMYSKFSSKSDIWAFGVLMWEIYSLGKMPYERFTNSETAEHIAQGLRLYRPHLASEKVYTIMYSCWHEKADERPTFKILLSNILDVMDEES

JeKo-1 = test: Antiproliferative activity against BTK knockout human JeKo-1 cells assessed as reduction in cell viability incubated for 72 hrs by CellTiter Glo luminescence assay; settings: JeKo-1, 72 h
[3] = Antiproliferative activity against human MINO cells assessed as reduction in cell viability incubated for 72 hrs by CellTiter Glo luminescence assay
Z-138 = test: Antiproliferative activity against human Z138 cells assessed as reduction in cell viability incubated for 72 hrs by CellTiter Glo luminescence assay; settings: Z-138, 72 h
[4] = target: T1, Tyrosine-protein kinase BTK; test: Inhibition of BTK (unknown origin) in the presence of ATP
[5] = target: T2, Protein cereblon/Tyrosine-protein kinase BTK (Homo sapiens, UniProt Q06187+Q96SW2); test: PROTAC activity at CRBN/BTK in human MINO cells assessed as decrease in BTK level by measuring maximal efficacy incubated for 24 hrs by Western blot analysis relative to control; format: cell-based
Target sequence in this assay (Q06187 2-659 limits assumed): as the sequence (Q06187 2-659 C481S limits assumed, stated change not applied) above, with S480C counted along it
Target sequence in this assay (Q96SW2 whole entry partner): as the sequence (Q96SW2 whole entry, stated change not applied) above

[6] = target: T2, Protein cereblon/Tyrosine-protein kinase BTK; test: PROTAC activity at CRBN/BTK in human MINO cells assessed as decrease in BTK level incubated for 24 hrs by Western blot analysis; format: cell-based
Target sequence in this assay (Q06187 whole entry): as the sequence (Q06187 whole entry) above
Target sequence in this assay (Q96SW2 whole entry): as the sequence (Q96SW2 whole entry, stated change not applied) above

[7] = target: E3 ubiquitin-protein ligase XIAP/Tyrosine-protein kinase BTK (Homo sapiens, UniProt P98170+Q06187); test: PROTAC activity at IAP/BTK in human THP-1 cells assessed as reduction in BTK level incubated for 16 hrs by immunoblot analysis; format: cell-based
Sequence of E3 ubiquitin-protein ligase XIAP/Tyrosine-protein kinase BTK (P98170 whole entry): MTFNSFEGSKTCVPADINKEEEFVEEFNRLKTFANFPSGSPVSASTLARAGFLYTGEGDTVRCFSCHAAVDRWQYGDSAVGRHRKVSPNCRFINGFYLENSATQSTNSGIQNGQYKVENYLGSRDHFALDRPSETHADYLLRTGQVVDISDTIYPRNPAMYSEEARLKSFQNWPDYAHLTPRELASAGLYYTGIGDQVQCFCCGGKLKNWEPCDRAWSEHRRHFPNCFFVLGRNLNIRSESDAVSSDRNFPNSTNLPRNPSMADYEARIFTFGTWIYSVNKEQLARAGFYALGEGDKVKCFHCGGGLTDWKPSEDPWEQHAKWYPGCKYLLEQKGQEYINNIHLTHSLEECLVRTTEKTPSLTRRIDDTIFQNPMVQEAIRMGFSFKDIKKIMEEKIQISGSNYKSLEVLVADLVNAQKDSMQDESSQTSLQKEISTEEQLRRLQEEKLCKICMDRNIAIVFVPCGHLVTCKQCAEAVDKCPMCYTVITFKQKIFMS
Sequence of E3 ubiquitin-protein ligase XIAP/Tyrosine-protein kinase BTK (Q06187 whole entry): as the sequence (Q06187 whole entry) above

[8] = target: T1, Tyrosine-protein kinase BTK; test: Competitive inhibition of recombinant human BTK incubated for 10 mins in the presence of ATP by mobility shift assay
A549 = test: Antiproliferative activity against human A549 cells assessed as inhibition of cell growth
[9] = Antiproliferative activity against human MINO cells assessed as inhibition of cell growth
OCI-Ly10 = test: Antiproliferative activity against human OCILY10 cells assessed as inhibition of cell growth
OCI-Ly7 = test: Growth inhibition of human OCILY7 cells; format: functional
[10] = target: T1, Tyrosine-protein kinase BTK; test: Inhibition of BTK (unknown origin)
Ramos = test: Antiproliferative activity against human Ramos cells assessed as reduction in cell viability incubated for 72 hrs by CCK-8 assay
Raji = test: Antiproliferative activity against human Raji cells assessed as reduction in cell viability incubated for 72 hrs by CCK-8 assay
NAMALVA = test: Antiproliferative activity against human NAMALVA cells assessed as reduction in cell viability incubated for 72 hrs by CCK-8 assay

pIC50 [4]: 5.74
Structure (SMILES): CN1CCN(c2ccc(Nc3nc(Nc4cccc(F)c4)c4ncn(CC5CC5)c4n3)cc2F)CC1

pIC50 [8]: 8.60
pIC50 (A549): 5.41
pIC50 (OCI-Ly10): 6.70
Structure (SMILES): C=C(Cl)C(=O)N1CCC(n2nc(-c3ccc(Oc4ccccc4)cc3)c3c(N)ncnc32)CC1
pIC50 [9]: 6.25

pIC50 [4]: 6.05
Structure (SMILES): CN1CCN(c2ccc(Nc3nc(Nc4ccccc4)c4ncn(CC5CC5)c4n3)cc2)CC1

GI50 (OCI-Ly7): 220 nM
pIC50 [10]: > 8.30
Structure (SMILES): C=CC(=O)NCC(=O)Nc1ncc(NC(=O)c2cc(C)cc(NC(=O)c3cccc(C)c3)c2)cn1

pIC50 (Ramos): 4.97
pIC50 (Raji): 5.10
Structure (SMILES): C=CC(=O)Nc1cccc(Nc2nc(Nc3ccc(Cn4cc(C)nc4CC)cc3)ncc2Cl)c1
pIC50 (NAMALVA): 5.31

The remaining lines, values behind:

Structure (SMILES): Nc1ncnc2c1c(-c1ccc(Oc3ccccc3)cc1)nn2C1CCCN(C(=O)c2cn(CCOCCOCCOCCCc3cccc4c3CN(C3CCC(=O)NC3=O)C4=O)nn2)C1 (stereo not drawn)
pEC50 [1]: 7.54

Structure (SMILES): Nc1ncnc2c1c(-c1ccc(Oc3ccccc3)cc1)nn2Cc1ccccc1F
pIC50 (Maver1): 4.46
pIC50 [2]: 7.41
pIC50 (JeKo-1): 4.48
pIC50 [3]: 4.95
pIC50 (Z-138): 4.36

Structure (SMILES): Nc1ncnc2c1c(-c1ccc(Oc3ccccc3)cc1)nn2Cc1cccc(NC(=O)CCl)c1
pIC50 (Maver1): 6.40
pIC50 (JeKo-1): 6.40
pIC50 (Z-138): 6.10

Structure (SMILES): Nc1ncnc2c1c(-c1ccc(Oc3ccccc3)cc1)nn2C1CCCN(C(=O)/C=C/CCCCCOCCOCCOCCOCCOc2cccc3c2C(=O)N(C2CCC(=O)NC2=O)C3=O)C1 (stereo not drawn)
Emax [5]: 90%
pEC50 [6]: 8.00

Structure (SMILES): C#C/C(=C\C(C)(C)CCCCOCCOCCOCCOCCOc1cccc2c1C(=O)N(C1CCC(=O)NC1=O)C2=O)C(=O)N1CCCC(n2nc(-c3ccc(Oc4ccccc4)cc3)c3c(N)ncnc32)C1 (stereo not drawn)
Emax [5]: 90%
pEC50 [6]: 8.00

Structure (SMILES): CN[C@H](C)C(=O)N[C@@H](C(=O)N1C[C@@H](NC(=O)COCCOCCOCCOCCN2CCN(CCCC(=O)N3CCCC(n4nc(-c5ccc(Oc6ccccc6)cc5)c5c(N)ncnc54)C3)CC2)C[C@H]1C(=O)N[C@@H]1CCCc2ccccc21)C1CCCCC1 (stereo partly drawn)
pEC50 [7]: 6.70

Structure (SMILES): Nc1cccc(Cn2nc(-c3ccc(Oc4ccccc4)cc3)c3c(N)ncnc32)c1
pIC50 (Maver1): 4.77
pIC50 (JeKo-1): 4.95
pIC50 (Z-138): 4.85
